In brackets after ≈: the same amount, converted by molar mass.
Conditions: buffer; pH 7.4; 200.0 µM

Going from `O=S(=O)(Nc1nc2ccccc2s1)c1ccc(Cl)nc1` to `O=S(=O)(Nc1ccccc1)c1cccc2nsnc12`, the solubility kinetic falls from greater than 48.9 µg/mL to 39.8 µg/mL (≈ 137 µM).

Compared with `CCOC(=O)c1ccc(NCc2cccnc2)cc1`, `Cc1ccc(C(=O)O/N=C(\N)Cc2cccc3ccccc23)cc1` is lower in solubility kinetic: greater than 38.4 µg/mL for the first, 0.5 µg/mL (≈ 1.57 µM) for the second.

First: CNC(=O)COC(=O)COc1ccc2c(C)cc(=O)oc2c1
Second: CC(=O)Nc1nc(C)c(Oc2ccc(C)cc2)c(=O)[nH]1
The solubility kinetic of the first is higher: greater than 45.8 µg/mL for the first, 39.6 µg/mL (≈ 145 µM) for the second.

First: COC(=O)c1cc(C(=O)c2cc(Cl)ccc2O)coc1=N
Second: O=C(Nc1nccs1)c1ccc(-c2ccc(Cl)cc2)o1
The solubility kinetic of the first is 22-fold higher: 41.9 µg/mL (≈ 136 µM) for the first, 1.9 µg/mL (≈ 6.23 µM) for the second.

`Cc1ccc(S(=O)(=O)n2cnc3ccccc32)cc1[N+](=O)[O-]` and `O=C(NCCc1ccccc1)c1ccc(Cl)cc1[N+](=O)[O-]` cannot be ordered by solubility kinetic: greater than 47.6 µg/mL for the first, greater than 45.7 µg/mL for the second.

`CC(C)COc1nc2ccccc2nc1N1CCN(C)CC1` and `Cc1nc2ccccc2nc1OCC(=O)Nc1ccc(F)cc1` are within 1.5-fold of each other in solubility kinetic: 33.9 µg/mL (≈ 113 µM) for the first, 33 µg/mL (≈ 106 µM) for the second.

`COCCCn1c(=NC(C)=O)c(C#N)cc2c(=O)n3cccc(C)c3nc21` and `Cc1ccc(C(C)C)cc1OCC(=O)NCCCn1ccnc1` cannot be ordered by solubility kinetic: 52.3 µg/mL (≈ 143 µM) for the first, greater than 47.3 µg/mL for the second.

Going from `COCCN1C(=O)CS/C1=C(/C#N)C(=O)NCc1ccco1` to `Cc1ccc(C(=O)Nc2ccccc2C(=O)NCc2ccco2)cc1`, the solubility kinetic falls from 41.4 µg/mL (≈ 129 µM) to 4.6 µg/mL (≈ 13.8 µM) (9-fold).

Compared with `COc1ccc(-c2noc(=O)n2Cc2ccccc2Cl)cc1`, `Cc1ccc(CONC(=O)c2ccccc2Cl)cc1` is higher in solubility kinetic: 17.8 µg/mL (≈ 56.2 µM) for the first, greater than 41.4 µg/mL for the second.

`Cc1cccc2cc(-c3nc4ccc(C(=O)O)cc4[nH]3)c(=O)oc12` and `COc1ccc(C(=O)NCc2cc(C)nc3ccccc23)cc1OC` are within 1.5-fold of each other in solubility kinetic: 26.9 µg/mL (≈ 84 µM) for the first, 39.6 µg/mL (≈ 118 µM) for the second.

`COC(=O)Nc1ccc(S(=O)(=O)Nc2ncccn2)cc1` and `O=C(CSc1ncccn1)Nc1ccc2c(c1)OCO2` cannot be ordered by solubility kinetic: greater than 46.2 µg/mL for the first, greater than 43.4 µg/mL for the second.

`C=CCN=C1SC(C)(C)C(=O)N1S(=O)(=O)c1ccc(C)cc1` and `Cc1ccc(S(=O)(=O)N2CCN(CC(=O)N3CCOCC3)CC2)cc1` are within 1.5-fold of each other in solubility kinetic: 45.6 µg/mL (≈ 135 µM) for the first, 54.7 µg/mL (≈ 149 µM) for the second.

First: O=C(CCN1C(=O)c2ccccc2S1(=O)=O)Nc1ccc(Cl)cc1
Second: O=C(COc1ccccc1Cl)Nc1ccc(N2CCCC2)cc1
The solubility kinetic of the first is higher: 0.9 µg/mL (≈ 2.47 µM) for the first, less than 0.4 µg/mL for the second.

First: CCCCC(CC)C1OCC(CN2CCCCC2)O1 (stereo not given)
Second: CC(Oc1ccccc1)C(=O)NC1CCCCCCC1 (stereo not given)
The solubility kinetic of the first is lower: 4.3 µg/mL (≈ 16 µM) for the first, greater than 41.3 µg/mL for the second.

`Cc1occc1C(=O)N1CCN(c2ccc(Cl)cc2)CC1` and `N=C1SCC(=O)N1c1ccc(Cl)cc1` cannot be ordered by solubility kinetic: 43.6 µg/mL (≈ 143 µM) for the first, greater than 34 µg/mL for the second.

First: CCOC(=O)c1sc(=S)n(-c2ccc(C)cc2)c1N
Second: CC(=O)N1CC(=O)Nc2ccc(C)cc2C1c1ccccc1 (stereo not given)
The solubility kinetic of the first is lower: 1.4 µg/mL (≈ 4.76 µM) for the first, greater than 44.2 µg/mL for the second.

Compared with `O=C(c1cc(F)ccc1F)C1CCCN(Cc2cccc(Cl)c2)C1` (stereo not given), `CN1CCN(Cc2cccc3ncccc23)CC1CCO` (stereo not given) is higher in solubility kinetic: 2.1 µg/mL (≈ 6 µM) for the first, greater than 42.8 µg/mL for the second.

Going from `COC(=O)c1ccc(N=CC2=C(O)CC(c3ccccc3)CC2=O)cc1` (stereo not given) to `Cc1ccccc1C(=O)Nc1cccc(C(=O)Nc2ccccc2C(=O)O)c1`, the solubility kinetic rises from 2.1 µg/mL (≈ 6.01 µM) to greater than 56.2 µg/mL.

First: Oc1c(Cl)cc(Cl)cc1CNc1nc2ccccc2[nH]1
Second: Cc1cc(C)cc(NC(=O)N2c3ccccc3NC(=O)CC2C)c1 (stereo not given)
The solubility kinetic of the first is 13-fold lower: 3.5 µg/mL (≈ 11.4 µM) for the first, 46.8 µg/mL (≈ 145 µM) for the second.

Compared with `CCN(c1ccc(NC(=O)CSc2ccc3c(c2)OCCO3)cc1)C(C)C`, `Cc1ccc(NC(=O)CN2C(=O)S/C(=C\c3ccccn3)C2=O)cc1C` is lower in solubility kinetic: 4.4 µg/mL (≈ 11.4 µM) for the first, less than 0.3 µg/mL for the second.

Going from `COC(=O)[C@H](Cc1ccccc1)NC(=O)NCc1ccccc1` to `O=C(NCCc1cccs1)C(c1ccccc1)c1ccccc1`, the solubility kinetic falls from 45.4 µg/mL (≈ 145 µM) to 1.5 µg/mL (≈ 4.67 µM) (30-fold).

`CC1CCCC(NC(=O)Cn2cc([N+](=O)[O-])ccc2=O)C1C` (stereo not given) and `Cc1ccc(NC(=O)C2C3CCC(O3)C2C(=O)O)cc1C` (stereo not given) cannot be ordered by solubility kinetic: 44 µg/mL (≈ 143 µM) for the first, greater than 43.4 µg/mL for the second.

Compared with `CC(NC(=O)c1cc(-c2ccccc2)nc2ccccc12)C1CCCO1` (stereo not given), `O=c1cc(-c2ccncc2)oc2c1ccc1ccccc12` is lower in solubility kinetic: greater than 52 µg/mL for the first, 0.7 µg/mL (≈ 2.56 µM) for the second.

`COCCNC(=O)c1cc2sccc2n1C` and `COc1ccc(NC(=O)Nc2ccon2)cc1OC` cannot be ordered by solubility kinetic: greater than 35.7 µg/mL for the first, greater than 39.5 µg/mL for the second.

Going from `CCCOc1ccc(CCCN=C(N)N)cc1Cl.O=S(=O)(O)O` to `COc1ccc(S(=O)(=O)N2CCOCC2)cc1NC(=O)COC(=O)c1[nH]c(C)c(C(C)=O)c1C`, the solubility kinetic falls from 42.2 µg/mL to 8.8 µg/mL (≈ 17.8 µM) (4.8-fold).

Going from `N#Cc1ccccc1NC(=O)COC(=O)/C=C/c1ccc(S(=O)(=O)N2CCOCC2)cc1` to `CC(=O)Nc1nc2ccc(S(=O)(=O)N3CCCC3)cc2s1`, the solubility kinetic falls from 5.7 µg/mL (≈ 12.5 µM) to 3.1 µg/mL (≈ 9.53 µM) (1.8-fold).

Going from `Clc1ccc2ccc3cccnc3c2n1` to `COC(=O)COc1ccc(-c2nccc(-c3ccccn3)n2)cc1`, the solubility kinetic falls from greater than 32.2 µg/mL to 2.4 µg/mL (≈ 7.47 µM).

First: C=CCSc1nnc(NC(=O)C2=COCCO2)s1
Second: COc1ccccc1/C=C1\SC(N2CCC(C)CC2)=NC1=O
The solubility kinetic of the first is higher: greater than 42.8 µg/mL for the first, 35 µg/mL (≈ 111 µM) for the second.

Going from `Cc1cc2c3c(c1)C(C)CC(C)(C)N3C(=O)C2=C(C#N)C#N` (stereo not given) to `Cc1cc2c(c(=O)o1)C(c1ccc([N+](=O)[O-])o1)C(C#N)=C(N)O2` (stereo not given), the solubility kinetic rises from 0.6 µg/mL (≈ 2.06 µM) to greater than 47.3 µg/mL.

Compared with `COc1ccc2c(c1)c1ncn(Cc3ccccn3)c(=O)c1n2C`, `COc1nc(C)cc(C)c1S(=O)(=O)c1ccccc1` is 3-fold higher in solubility kinetic: 13.6 µg/mL (≈ 42.5 µM) for the first, 41.3 µg/mL (≈ 149 µM) for the second.
